Test results published in PMC10489073 (Molecules, 2023).

Assays:
B16F10 cells = test: Survival time in mice bearing B16F10 cells; assay type: in vivo, C57BL/6 mice; settings: for median survival time (MST): twice a week for two weeks, vehicle group 16 days
Experimental: The animal experiments were conducted under the guidelines of the “Regulations for the Administration of Affairs Concerning Experimental Animals” (revised 2017, State Council No. 676). Female C57/B6 mice at 5 to 6 weeks were implanted via intraperitoneal (ip) injection with 5.0 × 10^6 B16F10 cells per individual and randomly assigned into control groups and treatment groups. Seven days after inoculation, mice from the control group were treated orally with DMSO in a vehicle, whereas the compound group mice were treated with specified concentrations of compounds by oral administration twice a week for two weeks. The survival percentage of the mice in each group was recorded and plotted. The anti-tumor activity of the drug was evaluated by measuring the median survival time (MST) for each group.

[1] = test system: P21WAF1/Cip1 in MM1.S cells; test: Western blot analysis, P21; assay type: cell-based; settings: 24 h
Experimental: MM1.S cells were seeded in 6-well plates with a density of 2.5 × 10^6 cells/well. Then, the cells were cultured with 1, 2, and 4 μM BC-05 and 10 nM ixazomib, respectively. After incubation for 24 h, the cells were collected, and total proteins were extracted via RIPA containing a 2% protease inhibitor cocktail. Cell lysates were centrifugated at 4 °C, 12,000 rpm for 15 min, and the supernatants were collected and quantified with BCA assay. After being boiled at 100 °C for 10 min in a NuPAGE lithium dodecyl sulfate (LDS) sample buffer (5X), equivalent samples were separated by 12% sodium dodecyl-sulfate polyacrylamide gel electrophoresis at 120 V, transferred to immune-blot poly(vinylidene fluoride) (PVDF) membranes (Merck Millipore, Burlington, MA, USA) at 4 °C and then blocked by 5% non-fat milk in TBST for an hour. The membranes were incubated overnight at 4 °C with certain primary antibodies, which were deliquates by an antibody dilution buffer (Boster Bio, Pleasanton, CA, USA) and then washed with TBST. After incubating with a horseradish (HRP)-conjugated secondary antibody for 1 h at room temperature, the membranes were washed five times with TBST for 5 min. The images were visualized on the Tanon-5200 Chemiluminescent Imaging System via luminol reaction. […]

Human CD13 = molecular target: T1, Human CD13 (Homo sapiens, UniProt P15144); test: CD13 inhibition assay (recombinant human aminopeptidase, L-leucine-p-nitroanilide); assay type: biochemical; settings: mean ± SD, n ≥ 3; read-out: IC50 toward Human CD13
T1 construct: purchased R&D systems
T1 sequence (P15144 whole entry): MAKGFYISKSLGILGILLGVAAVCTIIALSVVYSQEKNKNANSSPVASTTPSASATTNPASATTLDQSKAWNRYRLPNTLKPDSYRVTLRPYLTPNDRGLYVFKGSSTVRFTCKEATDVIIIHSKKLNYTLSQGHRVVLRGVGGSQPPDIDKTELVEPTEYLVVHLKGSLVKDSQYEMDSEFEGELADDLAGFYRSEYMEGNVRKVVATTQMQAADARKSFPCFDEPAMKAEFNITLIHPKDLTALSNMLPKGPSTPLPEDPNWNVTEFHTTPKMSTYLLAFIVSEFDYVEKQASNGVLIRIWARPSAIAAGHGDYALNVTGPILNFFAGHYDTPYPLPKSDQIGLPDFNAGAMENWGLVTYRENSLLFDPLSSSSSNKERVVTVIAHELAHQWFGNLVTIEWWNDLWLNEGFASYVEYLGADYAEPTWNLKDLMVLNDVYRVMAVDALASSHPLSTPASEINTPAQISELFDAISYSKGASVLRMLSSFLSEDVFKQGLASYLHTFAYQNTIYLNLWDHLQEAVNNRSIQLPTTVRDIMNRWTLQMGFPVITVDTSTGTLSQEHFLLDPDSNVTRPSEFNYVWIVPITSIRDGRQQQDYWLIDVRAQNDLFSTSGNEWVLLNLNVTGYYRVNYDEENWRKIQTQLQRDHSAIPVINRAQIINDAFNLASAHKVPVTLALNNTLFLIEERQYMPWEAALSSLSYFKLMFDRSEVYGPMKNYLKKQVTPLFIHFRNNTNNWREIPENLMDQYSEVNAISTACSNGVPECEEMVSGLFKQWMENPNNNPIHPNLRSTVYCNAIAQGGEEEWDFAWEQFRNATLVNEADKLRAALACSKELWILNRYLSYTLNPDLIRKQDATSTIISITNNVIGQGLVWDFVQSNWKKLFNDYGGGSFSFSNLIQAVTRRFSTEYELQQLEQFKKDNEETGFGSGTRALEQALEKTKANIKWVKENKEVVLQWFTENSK
Experimental: (§1) L-leucine-p-nitroanilide can be degraded by recombinant human aminopeptidase (R&D systems) or procine aminopeptidase (Sigma Chemical Co., St. Louis, MO, USA) and produce light absorption at 405 nm. The CD13 inhibitory activity of synthetic compounds was identified according to the degree of degradation of L-leucine-p-nitroanilide. L-leucine-p-nitroanilide was dissolved in DMSO and mixed with tested compounds in a transparent 96-well plate; then, aminopeptidase was added using phosphate solution (pH 7.2) as the assay buffer. After incubation at 37 °C for 30 min, the absorption was detected under a 405 nm wavelength via Tecan Spark multimode microplate.

HCT116 = test: Cell proliferation analysis (MTT); assay type: cell-based; settings: Homo sapiens, HCT-116, 48 h, read-out: Anti-proliferative activity IC50, HCT116
Experimental: (§2) All tumor cell lines in the current research were grown in a certain growth medium containing 10% FBS and 1% (v/v/v) penicillin–streptomycin–amphotericin at 37 °C in 5% CO2. Cells were seeded into 96-well plates at a density of 8 × 10^3 cells per well for tumor adherent cells and 2 × 10^4 cells per well for tumor-suspended cells in a final volume of 100 μL. After 12 h, 100 μL of various concentrations of compounds was added to each and incubated for 48 h. A 0.5% MTT solution was added per well before the intermixture was incubated for another 4 h, and formazan formed from MTT was extracted by adding […] of DMSO rocking for 15 min. Absorbance was measured at 570 nm using a Spark multimode microplate from Tecan. The IC50 values were calculated according to the inhibition ratios.

KG1 = test: Cell proliferation analysis (MTT); assay type: cell-based; settings: Homo sapiens, KG-1, 48 h, read-out: Anti-proliferative activity IC50, KG1
Experimental: as §2

ARP-1 = test: Cell proliferation analysis (MTT); assay type: cell-based; settings: 48 h, read-out: Anti-proliferative activity IC50, ARP-1
Experimental: as §2

SP2 = test: Cell proliferation analysis (MTT); assay type: cell-based; settings: 48 h, read-out: Anti-proliferative activity IC50, SP2
Experimental: as §2

RPMI-8266 = test: Cell proliferation analysis (MTT); assay type: cell-based; settings: RPMI8266, 48 h, read-out: Anti-proliferative activity IC50, RPMI-8266
Experimental: as §2

HEL = test: Cell proliferation analysis (MTT); assay type: cell-based; settings: Homo sapiens, 48 h, read-out: Anti-proliferative activity IC50, HEL
Experimental: as §2

U251 = test: Cell proliferation analysis (MTT); assay type: cell-based; settings: Homo sapiens, U-251, 48 h, read-out: Anti-proliferative activity IC50, U251
Experimental: as §2

PC3 = test: Cell proliferation analysis (MTT); assay type: cell-based; settings: Homo sapiens, PC-3, 48 h, read-out: Anti-proliferative activity IC50, PC3
Experimental: as §2

Hela = test: Cell proliferation analysis (MTT); assay type: cell-based; settings: Homo sapiens, 48 h, read-out: Anti-proliferative activity IC50, Hela
Experimental: as §2

A2780 = test: Cell proliferation analysis (MTT); assay type: cell-based; settings: Homo sapiens, 48 h, read-out: Anti-proliferative activity IC50, A2780
Experimental: as §2

MDA-MB-231 = test: Cell proliferation analysis (MTT); assay type: cell-based; settings: Homo sapiens, 48 h, read-out: Anti-proliferative activity IC50, MDA-MB-231
Experimental: as §2

MM.1S = test: Cell proliferation analysis (MTT); assay type: cell-based; settings: Homo sapiens, MM1.S, 48 h, read-out: Anti-proliferative activity IC50, MM.1S
Experimental: as §2

HT-29 = test: Cell proliferation analysis (MTT); assay type: cell-based; settings: Homo sapiens, 48 h, read-out: Anti-proliferative activity IC50, HT-29
Experimental: as §2

U266 = test: Cell proliferation analysis (MTT); assay type: cell-based; settings: Homo sapiens, U-266, 48 h, read-out: Anti-proliferative activity IC50, U266
Experimental: as §2

CD13 from Porcine Kidney = molecular target: T2, CD13 from Porcine Kidney (Sus scrofa, UniProt P15145); test: CD13 inhibition assay (porcine aminopeptidase, L-leucine-p-nitroanilide); assay type: biochemical; settings: mean ± SD, n ≥ 3; read-out: IC50 toward CD13 from Porcine Kidney
T2 construct: purchased Sigma Chemical Co., St. Louis, MO, USA
T2 sequence (P15145 whole entry): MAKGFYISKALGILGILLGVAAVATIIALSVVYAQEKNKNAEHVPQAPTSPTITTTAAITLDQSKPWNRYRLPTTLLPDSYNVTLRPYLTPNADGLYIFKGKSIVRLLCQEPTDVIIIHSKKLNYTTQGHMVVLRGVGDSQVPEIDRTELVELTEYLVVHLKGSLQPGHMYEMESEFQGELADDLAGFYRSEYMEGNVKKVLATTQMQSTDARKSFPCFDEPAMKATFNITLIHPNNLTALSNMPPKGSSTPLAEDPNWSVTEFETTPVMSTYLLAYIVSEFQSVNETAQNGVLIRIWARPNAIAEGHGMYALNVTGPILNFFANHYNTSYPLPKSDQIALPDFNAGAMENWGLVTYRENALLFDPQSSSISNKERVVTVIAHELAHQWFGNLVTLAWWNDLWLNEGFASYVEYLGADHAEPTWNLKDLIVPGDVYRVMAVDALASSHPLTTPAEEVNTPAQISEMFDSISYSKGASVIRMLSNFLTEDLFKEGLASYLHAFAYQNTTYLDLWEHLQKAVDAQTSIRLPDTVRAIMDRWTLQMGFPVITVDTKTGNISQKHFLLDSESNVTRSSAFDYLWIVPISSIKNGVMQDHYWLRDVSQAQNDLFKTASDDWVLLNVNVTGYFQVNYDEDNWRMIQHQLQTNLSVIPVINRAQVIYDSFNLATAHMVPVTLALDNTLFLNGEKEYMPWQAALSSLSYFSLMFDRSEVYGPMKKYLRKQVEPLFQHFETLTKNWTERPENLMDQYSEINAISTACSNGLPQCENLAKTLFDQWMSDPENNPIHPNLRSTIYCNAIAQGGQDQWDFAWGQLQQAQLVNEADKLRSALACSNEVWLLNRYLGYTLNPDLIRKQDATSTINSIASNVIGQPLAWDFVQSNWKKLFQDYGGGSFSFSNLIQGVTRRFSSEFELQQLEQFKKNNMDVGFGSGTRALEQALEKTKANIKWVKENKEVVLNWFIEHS
Experimental: as §1

## CC(C)C[C@H](NC(=O)[C@@H](O)[C@H](N)Cc1ccccc1)B1OC(=O)C(CC(=O)O)(CC(=O)O)O1 [BC-05, 2,2′-(2-((R)-1-((2S,3R)-3-amino-2-hydroxy-4-phenylbutanamido)-3-methylbutyl)-5-oxo-1,3,2-dioxaborolane-4,4-diyl)diacetic acid]
B16F10 cells; 0.008 mmol/kg oral
  MST increase compared to the vehicle group: 1.4 fold
  median survival time (MST): 22 days
B16F10 cells; 0.012 mmol/kg oral
  MST increase compared to the vehicle group: 1.6 fold
  median survival time (MST): 25 days
[1]
  P21WAF1/Cip1 level (Western blot): significantly upregulates
Human CD13
  IC50: 0.13 ± 0.01 µM
HCT116
  IC50: 86.7 ± 7.34 µM
KG1
  IC50: 41.6 ± 4.11 µM
ARP-1
  IC50: 10.2 ± 1.23 µM
SP2
  IC50: 14.7 ± 4.91 µM
RPMI-8266
  IC50: 15.1 ± 2.23 µM
HEL
  IC50: 13.3 ± 2.81 µM
U251
  IC50: 47.5 ± 11.9 µM
PC3
  IC50: 47.4 ± 4.22 µM
Hela
  IC50: 83.1 ± 8.79 µM
A2780
  IC50: 33.7 ± 0.99 µM
MDA-MB-231
  IC50: 13.3 ± 0.49 µM
MM.1S
  IC50: 1.53 ± 0.24 µM
HT-29
  IC50: 12.5 ± 1.21 µM
U266
  IC50: 13.7 ± 1.43 µM
CD13 from Porcine Kidney
  IC50: 0.65 ± 0.05 µM
